Experimental data: patent US11766430B2, “Methods of using a phenoxypropylamine compound to treat pain” (Minerva Neurosciences, Inc., priority 2018, dated 2023)
“And” between values parts separate entries of the source, which are not always exact repeats. Identical values can stand only once.

System: peripheral mononeuropathy (Bennett model) in rats
Test: Peripheral mononeuropathy (Bennett model, chronic constriction injury), paw pressure test (Example 3)
Assay type: in vivo, male Sprague-Dawley rats
Conditions: for paw withdrawal threshold, control paw, Mean: n = 10; for Nociceptive threshold, control paw (mean ± s.e.m.): T0 (14 days after surgery, before dosing)
Method: The model of Chronic Constriction Injury (CCI) is based on a discrete peripheral nerve injury and can be related to post-traumatic/postsurgical neuropathic pain experienced by patients (Bennett, G. J. and Xie, Y. K., A peripheral mononeuropathy in rat that produces disorders of pain sensation like those seen in man, Pain, 1988(33):87-107). Unilateral peripheral mononeuropathy was induced by loose ligation of the rat the sciatic nerve of the right hindpaw in anaesthetized rats (xylazine 10 mg/kg i.p., ketamine 60 mg/kg i.p.). The common sciatic nerve was exposed at the level of the middle of the thigh by blunt dissection through the biceps femoris. Proximal to the sciatic trifurcation, four ligatures were tied loosely around it with about 1 mm spacing. Great care was taken to tie the ligatures, such that the diameter of the nerve was seen to be just barely constricted.
Fourteen days later, static mechanical hyperalgesia is assessed using the Paw pressure test (Randall, L. O. and Selitto, J. J., A method for measurement of analgesic activity on inflamed tissue, Arch Int Pharmacodyn, 1957(111):409-419). This test requires the application of an increasing pressure on the hind paws between a flat surface and a blunt pointer. This test is usually used with animals with one hindpaw inflamed by an injection or injured by ligation, and one normal hindpaw, to evaluate drugs for analgesic action. The apparatus exerts a steadily increasing force and reaction threshold is determined as the pressure (g) required to elicit paw withdrawal and/or vocalization. Ugo Basile Analgesimeter (Ugo Basile, Italy) was used for the paw pressure test.
Fourteen days after surgery (D0), nociceptive reaction thresholds (vocalization or paw withdrawal) was measured in order to select animals meeting the inclusion criteria: 20 g<paw withdrawal threshold<240 g (baseline).
Fifty (50) male Sprague-Dawley rats (SPF status, Janvier, France), weighing 133-181 grams the day of surgery were used. Rats were housed in a temperature (20-24° C.) and relative humidity (45%-65%) controlled room and acclimated to an artificial day/night cycle of 12 hours light (6:30 a.m. to 6:30 p.m.)/12 hours darkness. Rats had free access to sterilized tap water and were fed ad libitum with pelleted complete diet (reference A04, S.A.F.E.). Animals were housed 4 per cage (cages Type E) and were acclimated for a period of at least 5 days before any testing. Each rat was identified by tail markings. Based on the SPF status of the animal facilities, there is no reason to expect that contaminants were present in the food, water or bedding, at levels capable of interfering with the results of the tests. […]
Vehicle and MIN-117 were intraperitoneally administered at 10 mL/kg. […] Dosing and testing were performed in a random order by a blinded experimenter except for the morphine-treated group.
Thirty minutes after morphine injection, the antihyperalgesic effect of morphine was evaluated using the paw pressure test. For vehicle and MIN-117 administration, the antihyperalgesic effect of the was evaluated after 120 min. using the paw pressure test.
Results were expressed as: • The paw withdrawal threshold (mean±s.e.m.) in grams of contact pressure for each group, calculated from individual paw withdrawal thresholds • The percentage of variation of the paw withdrawal threshold calculated from the mean value of the vehicle-treated group • The percentage of activity of the compound on mechanical hyperalgesia induced by the sciatic nerve ligation, calculated as follows: […]

[1] = CCI rats, Morphine 3 mg/kg IP [sic], 30 min
[2] = CCI rats, Morphine 3 mg/kg IP [sic], 30 min after treatment
[3] = CCI rats, Morphine 3 mg/kg group, Baseline (pre-treatment)
[4] = CCI, 3 mg/kg SC, T0 (before dosing)
[5] = CCI rats, MIN-117 1 mg/kg IP group, Baseline (pre-treatment)
[6] = CCI rats, MIN-117 1 mg/kg IP, 120 min
[7] = CCI rats, MIN-117 1 mg/kg IP, 120 min after treatment, hydrochloride, 1 mg/kg
[8] = CCI rats, MIN-117 3 mg/kg IP group, Baseline (pre-treatment)
[9] = CCI rats, MIN-117 3 mg/kg IP, 120 min
[10] = CCI rats, MIN-117 3 mg/kg IP, 120 min after treatment, hydrochloride, 3 mg/kg
[11] = CCI rats, MIN-117 10 mg/kg IP group, Baseline (pre-treatment)
[12] = CCI rats, MIN-117 10 mg/kg IP, 120 min
[13] = CCI rats, MIN-117 10 mg/kg IP, 120 min after treatment, hydrochloride, 10 mg/kg
[14] = CCI, 1 mg/kg IP, T0 (before dosing)
[15] = CCI, 3 mg/kg IP, T0 (before dosing)
[16] = CCI, 10 mg/kg IP, T0 (before dosing)

Structure (SMILES): CN1CC[C@]23c4c5ccc(O)c4O[C@H]2[C@@H](O)C=C[C@H]3[C@H]1C5 [Morphine, reference compound]
- % activity on mechanical hyperalgesia, injured paw [1]: 165%
- % variation vs control paw, injured paw [1]: −23%
- % variation vs pre-drug threshold, injured paw [1]: 159%
- paw withdrawal threshold, control paw, individual rats [2]: 680 g (2×) and 640 g (3×) and 600 g (3×) and 560 g and 660 g
- paw withdrawal threshold, injured paw, individual rats [2]: 680 g and 600 g (2×) and 480 g (2×) and 560 g and 320 g and 500 g and 240 g and 400 g
- paw withdrawal threshold, control paw, Mean [2]: 630 g
- % variation vs control paw, injured paw [3]: −49%
- % variation vs vehicle treated group, injured paw [3]: 6%
- paw withdrawal threshold, control paw, Mean [3]: 372 g
- Nociceptive threshold, control paw (mean ± s.e.m.) (CCI, 3 mg/kg SC): 372 ± 20.7 g
- % variation vs control paw, injured paw [4]: −49%
- % variation vs vehicle-treated group, injured paw [4]: 6%
- Nociceptive threshold, injured paw (mean ± s.e.m.) (CCI, 3 mg/kg SC, T0 (before dosing), 3 mg/kg): 188 ± 10.4 g
- % variation vs control paw, injured paw (CCI, 3 mg/kg SC, T0 + 30 min): −23%
- % variation vs pre-drug threshold, injured paw (CCI, 3 mg/kg SC, T0 + 30 min): 159%
- Nociceptive threshold, injured paw (mean ± s.e.m.) (CCI, 3 mg/kg SC, T0 + 30 min, 3 mg/kg): 486 ± 42.8 g
- Effect on nociceptive threshold vs baseline pre-treatment (in words) (CCI, 3 mg/kg s.c., 30 min. after the administration): pronounced and significant increase

Structure (SMILES): Cc1nnc(-c2cc3c(OC[C@@H](O)CN4CCC(c5ccc(Cl)c(Cl)c5)CC4)cccc3o2)o1.Cl [MIN-117, (2S)-1-(4-(3,4-dichlorophenyl)piperidin-1-yl)-3-((2-(5-methyl-1,3,4-oxadiazol-2-yl)benzofuran-4-yl)oxy)propan-2-ol hydrochloride]
- % variation vs control paw, injured paw [5]: −54%
- % variation vs vehicle treated group, injured paw [5]: −6%
- paw withdrawal threshold, control paw, Mean [5]: 366 g
- % activity on mechanical hyperalgesia, injured paw [6]: 9%
- % variation vs control paw, injured paw [6]: −47%
- % variation vs pre-drug threshold, injured paw [6]: 10%
- % variation vs vehicle treated group, injured paw [6]: 11%
- paw withdrawal threshold, control paw, individual rats [7]: 400 g (2×) and 300 g (2×) and 360 g and 320 g (4×) and 440 g
- paw withdrawal threshold, injured paw, individual rats [7]: 200 g (3×) and 180 g (3×) and 160 g (3×) and 220 g
- paw withdrawal threshold, control paw, Mean (CCI rats, MIN-117 1 mg/kg IP, 120 min after treatment): 348 g
- % variation vs control paw, injured paw [8]: −55%
- % variation vs vehicle treated group, injured paw [8]: −8%
- paw withdrawal threshold, control paw, Mean [8]: 364 g
- % activity on mechanical hyperalgesia, injured paw [9]: 29%
- % variation vs control paw, injured paw [9]: −40%
- % variation vs pre-drug threshold, injured paw [9]: 35%
- % variation vs vehicle treated group, injured paw [9]: 34%
- paw withdrawal threshold, control paw, individual rats [10]: 440 g and 420 g (2×) and 300 g and 360 g (2×) and 340 g (2×) and 460 g and 280 g
- paw withdrawal threshold, injured paw, individual rats [10]: 280 g and 220 g (2×) and 200 g (3×) and 180 g and 240 g (3×)
- paw withdrawal threshold, control paw, Mean (CCI rats, MIN-117 3 mg/kg IP, 120 min after treatment): 372 g
- % variation vs control paw, injured paw [11]: −55%
- % variation vs vehicle treated group, injured paw [11]: −8%
- paw withdrawal threshold, control paw, Mean [11]: 368 g
- % activity on mechanical hyperalgesia, injured paw [12]: 59%
- % variation vs control paw, injured paw [12]: −33%
- % variation vs pre-drug threshold, injured paw [12]: 71%
- % variation vs vehicle treated group, injured paw [12]: 69%
- paw withdrawal threshold, control paw, individual rats [13]: 600 g and 320 g and 440 g (4×) and 400 g and 280 g and 480 g and 360 g
- paw withdrawal threshold, injured paw, individual rats [13]: 440 g and 320 g (2×) and 260 g and 220 g and 240 g (4×) and 280 g
- paw withdrawal threshold, control paw, Mean (CCI rats, MIN-117 10 mg/kg IP, 120 min after treatment): 420 g
- Nociceptive threshold, control paw (mean ± s.e.m.) (CCI, 1 mg/kg IP): 366 ± 16.1 g
- % variation vs control paw, injured paw [14]: −54%
- % variation vs vehicle-treated group, injured paw [14]: −6%
- Nociceptive threshold, injured paw (mean ± s.e.m.) [14]: 168 ± 8.0 g
- % variation vs control paw, injured paw (CCI, 1 mg/kg IP, T0 + 120 min): −47%
- % variation vs pre-drug threshold, injured paw (CCI, 1 mg/kg IP, T0 + 120 min): 10%
- % variation vs vehicle-treated group, injured paw (CCI, 1 mg/kg IP, T0 + 120 min): 11%
- Nociceptive threshold, injured paw (mean ± s.e.m.) (CCI, 1 mg/kg IP, T0 + 120 min): 184 ± 6.5 g
- Effect on nociceptive threshold vs vehicle-treated group (in words) (CCI, 1 mg/kg i.p., 120 min. after treatment): did not induce any significant increase
- Nociceptive threshold, control paw (mean ± s.e.m.) (CCI, 3 mg/kg IP): 364 ± 9.8 g
- % variation vs control paw, injured paw [15]: −55%
- % variation vs vehicle-treated group, injured paw [15]: −8%
- Nociceptive threshold, injured paw (mean ± s.e.m.) [15]: 164 ± 5.8 g
- % variation vs control paw, injured paw (CCI, 3 mg/kg IP, T0 + 120 min): −40%
- % variation vs pre-drug threshold, injured paw (CCI, 3 mg/kg IP, T0 + 120 min): 35%
- % variation vs vehicle-treated group, injured paw (CCI, 3 mg/kg IP, T0 + 120 min): 34%
- Nociceptive threshold, injured paw (mean ± s.e.m.) (CCI, 3 mg/kg IP, T0 + 120 min, hydrochloride, 3 mg/kg): 222 ± 9.2 g
- Effect on nociceptive threshold vs vehicle-treated group (in words) (CCI, 3 mg/kg i.p., after 120 min.): significant increase
- Nociceptive threshold, control paw (mean ± s.e.m.) (CCI, 10 mg/kg IP): 368 ± 16.9 g
- % variation vs control paw, injured paw [16]: −55%
- % variation vs vehicle-treated group, injured paw [16]: −8%
- Nociceptive threshold, injured paw (mean ± s.e.m.) [16]: 164 ± 7.2 g
- % variation vs control paw, injured paw (CCI, 10 mg/kg IP, T0 + 120 min): −33%
- % variation vs pre-drug threshold, injured paw (CCI, 10 mg/kg IP, T0 + 120 min): 71%
- % variation vs vehicle-treated group, injured paw (CCI, 10 mg/kg IP, T0 + 120 min): 69%
- Nociceptive threshold, injured paw (mean ± s.e.m.) (CCI, 10 mg/kg IP, T0 + 120 min, hydrochloride, 10 mg/kg): 280 ± 20.9 g
- Effect on nociceptive threshold vs vehicle-treated group (in words) (CCI, 10 mg/kg i.p., after 120 min.): significant increase
